As usually defined, the melting point is the temperature of the solid-liquid transition. The pIC50 is the IC50 on a negative log10 scale, so that one unit is a factor of ten. A low value points to a large IC50. Usually pKi stands for the Ki on a negative log10 scale, so that one unit is a factor of ten.

Data on 18 molecules can be found in patent publication US6573278B2, “Aryl sulfonamides and analogues thereof and their use in the treatment of neurodegenerative diseases” (Bayer Aktiengesellschaft, priority 1997, dated 2003).

One data set has as its target T1, rat CB1 receptor (Rattus norvegicus, UniProt P20272).
T1 construct: contains an open reading frame of 1419 base pairs which corresponds to a protein of 473 amino acids; expressed in transfected cells; host or cells: CHOluc9 cells, stably transfected with plasmid CMV-RH (pRc/CMV)
Kind of data set: CB1 luciferase reporter gene test (CHOluc9 cells, forskolin-stimulated). Format: cell-based. Particulars: CHOluc9 cells with rat CB1, forskolin. As to the method:
CB1—Luciferase Reporter Gene Test
1. Cloning of the Rat Cannabinoid Receptor CB1
Total RNA from rat brain (the tissue was taken from freshly killed animals and shock-frozen in liquid nitrogen) was isolated by acidic guanidinium thiocyanate/phenol/chloroform extraction (J. Biol. Chem. 1979, 18, 5294) and converted into cDNA by means of reverse transcriptase and random primers (in each case from Invitrogen). The polymerase chain reaction (PCR, conditions: 4 min 94° C., 1×; 1 min 94° C.; 2 min 53° C.; 1 min 72° C., 50 cycles; 1 min 94° C., 2 min 53° C., 4 min 72° C., 1×) was carried out in a Perkin Elmer thermocycler using the enzyme Taq polymerase (Perkin Elmer); the oligonucleotide primers employed (bases 99 to 122: 5′→3′, “down”; 1556-1575: 3′←5′, “up”) were derived from the published sequence of the rat cannabinoid receptor (Nature 1990, 346, 561) and were synthesized on a DNA synthesizer, model 1380 from Applied Biosystems. One part of the PCR reaction was separated in a 1% strength agarose gel in 1× TBE buffer and then stained with ethidium bromide, only one band having the expected length being visible (approximately 1.5 kb). This PCR product was subcloned into the TA cloning vector (Invitrogen) and the nucleotide sequence of the inserts was determined by the dideoxynucleotide chain termination reaction using T7DNA polymerase (Sequenase, USA/Amersham). The insert has a length of 1477 base pairs and contains an open reading frame of 1419 base pairs which corresponds to a protein of 473 amino acids. The number of base pairs, the position of the open reading frame and the number of amino acids agree with the published sequence. Computer analyses were carried out with the aid of the GCG software suite (Genetic Computer Group). The cDNA insert was subcloned into the expression vector pRc/CMV after partial digestion with HindIII and NotI (Biolabs). This construct (plasmid CMV-RH) was employed for transfection experiments.
2. Stable Transfection of the CHOluc9 Reporter Cells
CHOluc9 cells were cultured in 50% Dulbecco's modified Eagle medium/50% F-12 (DMEM/F12) which contained 10% foetal calf serum (FCS). Transfections were prepared in 6-well plates. 7.5 μg of Qiagen-purified CMV-RH plasmid DNA were added per […] with the DOTAP transfection system, corresponding to the experimental protocol of the manufacturer (Boehringer Mannheim). Transfected cells were selected using 1 mg/ml G418 and individual clones were obtained by limiting dilution in 96-well plates. Cell lines which express the cannabinoid receptor were identified for the inhibition of reporter gene expression after incubation with the cannabinoid receptor agonist, WIN-55,212-2, in the presence of forskolin. Several stable transfected and subcloned cell lines were further characterized by means of RT-PCR, as described under 1.
3. Test Optimization and Pharmacological Characterization of the CHOCB1 Reporter Cell Line
With the aim of high sensitivity and reproducibility, low variance and high suitability for carrying out on the robotic system, the luciferase test was optimized by variation of several test parameters, such as, for example, cell density, duration of the growth phase and the test incubation, forskolin concentration, medium composition. […]
A general note: In a reporter assay the amount or activity of a reporter protein is the signal.

Data set [1] is described as follows: Rat hypothermia, agonism testing. Format: in vivo. Particulars: i.v. As to the method: Five minutes after determination of the basal body temperature via an oesophageal temperature probe, the test substance is administered (i.v.). A control group receives only the solvent for the test substances, likewise i.v. The body temperature is measured 7.5, 15, 30 and 60 minutes after i.v. administration. The group size per dose is 5-7 animals (rats).
Rat hypothermia—Agonism testing

Data set [2] concerns the target T2, CB1 receptor (rat cortex membranes) (Rattus norvegicus, UniProt P20272).
T2 construct: from tissue; host or cells: rat cortex membranes
Kind of data set: Binding studies on rat cortex membranes. The conditions noted are these: read-out: Ki, affinity for the CB1 receptor (rat cortex membranes). As to the method: Binding Studies on Rat Cortex Membranes
Membrane protein is prepared from different tissues or from cells by standard methods. Buffer, labelled ligand, DMSO or test substance are pipetted together, then 100 μg of protein are added, and the mixture is well mixed and incubated in a water bath at 30° C. for 60 min. After expiry of the incubation time, the reaction is stopped by addition of ice-cold incubation buffer to each tube. After filtering off, washing is carried out with ¾ ml of incubation buffer. The filters are transferred to minivials and the radioactivity is determined in a scintillation counter. Affinity for the CB1 receptor (rat cortex membranes)

Data set [3] has as its system permanent focal cerebral ischaemia (MCA-O). Nature of the data set: Permanent focal cerebral ischaemia in the rat (MCA-O). Format: in vivo. Particulars: infarct size after 7 days. As to the method:
Permanent Focal Cerebral Ischaemia in the Rat (MCA-O)
Under isoflurane anaesthesia, the median cerebral artery is exposed on one side and the latter and its side branches are irreversibly sealed by means of electrocoagulation. As a result of the intervention a cerebral infarct is formed. During the operation, the body temperature of the animal is kept at 37° C. After wound closure and wearing off of the anaesthesia, the animals are again released into their cage. The administration of substance is carried out according to different time schemes and via different administration routes (i.v., i.p.) after occlusion. The infarct size is determined after 7 days. To do this, the brain is removed, worked up histologically and the infarct volume is determined with the aid of a computer-assisted analysis system.
Activity in the model of permanent focal cerebral ischaemia (MCA-O)

Data set [4] has as its system subdural haematoma in the rat (SDH). Nature of the data set: Subdural haematoma in the rat (SDH). Format: in vivo. As to the method:
Subdural Haematoma in the Rat (SDH)
Under anaesthesia, the animal's own blood is injected subdurally on one side An infarct is formed under the haematoma. Substance administration is carried out according to different time schemes and via different administration routes (i.v., i.p.) The determination of the infarct size is carried out as described in the model of permanent focal ischaemia in the rat (MCA-O)
Activity in the model “subdural haematoma in the rat (SDH)”

Where [5] appears, read: 0.1 mg/kg, i.v. bolus injections directly, 2 and 4 hours after occlusion.
The mark [6] stands for this setting: 0.03 mg/kg/h, i.v. continuous infusion directly up to 4 hours after occlusion.

pIC50, pKi: −log10 of the molar value. Structures can show the parent of a compound that is named as a salt. Marks after values point to notes of the source that are not given here.

T1 sequence (P20272 whole entry): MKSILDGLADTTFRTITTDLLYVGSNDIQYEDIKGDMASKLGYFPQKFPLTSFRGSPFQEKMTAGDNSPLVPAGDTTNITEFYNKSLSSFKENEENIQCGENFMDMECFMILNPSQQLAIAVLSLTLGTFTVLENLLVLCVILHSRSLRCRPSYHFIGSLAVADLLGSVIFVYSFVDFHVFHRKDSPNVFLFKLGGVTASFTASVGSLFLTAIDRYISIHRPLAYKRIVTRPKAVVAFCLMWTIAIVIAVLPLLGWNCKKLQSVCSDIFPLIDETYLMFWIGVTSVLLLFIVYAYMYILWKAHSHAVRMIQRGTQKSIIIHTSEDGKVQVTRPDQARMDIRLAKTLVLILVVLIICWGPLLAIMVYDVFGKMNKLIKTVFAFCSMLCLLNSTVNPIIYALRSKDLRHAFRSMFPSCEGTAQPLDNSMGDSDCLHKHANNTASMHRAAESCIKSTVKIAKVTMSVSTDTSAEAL
T2 sequence (P20272 whole entry): as above

Turning to `CCCOS(=O)(=O)Nc1ccc(Oc2cccc3ccccc23)cc1`, the melting point was determined as 95 °C.
`CCCCCS(=O)(=O)N(c1ccc(Oc2cccc3c2CCNC3)cc1)S(=O)(=O)CCCCC` (as salt: hydrochloride) displayed a melting point of 162 °C.
`CCCC[S+]([O-])Nc1ccc(Oc2cccc3ccccc23)cc1` (stereo not drawn) gave a melting point of 138 to 139 °C.
`CCC(=O)Nc1ccc(Oc2ccc(NS(=O)(=O)Cc3ccccc3)cc2)c2ccccc12` gave a melting point of 180 °C.
`CCCCCS(=O)(=O)Oc1ccc(Oc2cccc3ccccc23)cc1` [Example 99] gave a pIC50 against rat CB1 receptor of 8.54. In addition, the “ED−1° C., effective dose for 1° C. body temperature reduction” value in data set [1] is on record as 0.6 ^b) mg/kg.
In turn, `CCCCCS(=O)(=O)Oc1ccc(Oc2cccc3c2CCNC3)cc1` gave a melting point of 143 °C.
The molecule `CCCCS(=O)(=O)Nc1ccc([S+]([O-])c2cccc3ccccc23)cc1` (stereo not drawn) returned a melting point of 161 °C.
As to `CCCCC(=O)Nc1ccc(Oc2cccc3ccccc23)cc1`, the melting point is 80 °C.
As to `O=S(=O)(Cc1ccccc1)Nc1ccc(Oc2cccc3ccccc23)nc1` [Example 33], the melting point lay in the range of 161 to 162 °C. Further, in data set [2], the negative logarithm of the Ki (pKi) is 6.38. Moreover, the negative-log IC50 (pIC50) against rat CB1 receptor is 8.00. For the same molecule, the “% Reduction in the infarct volume” value in data set [3] (setting [5]) was found to be 33%. In addition, in data set [1], the “ED−1° C., effective dose for 1° C. body temperature reduction” value was 0.6 ^b) mg/kg. Besides, the “% Reduction in the infarct volume” value in data set [4] (setting [5]) was 42%.
Consider `CCCCCS(=O)(=O)Nc1ccc(Oc2cccc3c2CCN(CCCC)C3)cc1`, for which the melting point was determined as 187 °C.
With `Nc1ccc(Oc2ccc(NS(=O)(=O)Cc3ccccc3)cc2)c2ccccc12` (as salt: hydrochloride), the melting point was found to be 252 °C.
Molecule `CCCCS(=O)(=O)Nc1ccc(S(=O)(=O)c2cccc3ccccc23)cc1` returned a melting point of 180 °C.
Molecule `CCCCS(=O)(=O)Nc1ccc(Oc2cccc3ccccc23)cc1` [Example 1, 1-N-(1-Butylsulfonyl)amino-4-(naphthyl-1-oxy)benzene] had a melting point of 108 to 109 °C. Further, the negative logarithm of the Ki (pKi) in data set [2] is 6.23. The same molecule had a negative logarithm of the IC50 (pIC50) at rat CB1 receptor of 7.82. Moreover, the “% Reduction in the infarct volume” value in data set [3] (setting [6]) was determined as 35%. Also, the “ED−1° C., effective dose for 1° C. body temperature reduction” value in data set [1] is listed as 1.0 ^b) mg/kg. The “% Reduction in the infarct volume” value in data set [4] (setting [5]) was found to be 54%. The “% Reduction in the infarct volume” value in data set [4] (1.0 mg/kg, i.v. bolus injections directly, 2 and 4 hours after occlusion) is reported as “(84) %”.
The molecule `CCCNS(=O)(=O)Nc1ccc(Oc2cccc3ccccc23)cc1` had a melting point of 113 to 115 °C.
`CCCCCS(=O)(=O)Nc1ccc(Oc2cccc3c2CC(CO)(CO)C3)cc1` displayed a melting point of 135 to 137 °C.
Take `O=S(=O)(Cc1ccccc1)Nc1cccc(Oc2cccc3ccccc23)c1` [Example 51]: the melting point amounted to 139.5 °C. Besides, in data set [2], the pKi was 7.39. For the same molecule, the negative logarithm of the IC50 (pIC50) against rat CB1 receptor was 9.05. Moreover, the “% Reduction in the infarct volume” value in data set [3] (setting [5]) came out at 24%. Further, in data set [1], the “ED−1° C., effective dose for 1° C. body temperature reduction” value was 0.1 ^b) mg/kg. Further, the “% Reduction in the infarct volume” value in data set [4] (0.01 mg/kg/h, i.v. continuous infusion directly up to 4 hours post-trauma) came out at 54%.
As to `O=S(=O)(NCc1ccccc1)c1ccc(Oc2cccc3ccccc23)cc1`, the melting point was 144 to 146 °C.
`O=S(=O)(CCCCl)Nc1ccc(Oc2cccc3ccccc23)cc1` [Example 65]: the melting point stood at 115 °C. Further, the pKi in data set [2] is 6.60. Moreover, the negative logarithm of the IC50 (pIC50) on rat CB1 receptor is 7.89. The “% Reduction in the infarct volume” value in data set [3] (0.01 mg/kg/h) is given as “(47) %”. In data set [3] (setting [6]), the “% Reduction in the infarct volume” value was determined as 37%. For the same molecule, the “ED−1° C., effective dose for 1° C. body temperature reduction” value in data set [1] was 1.0 ^b) mg/kg. Besides, the “% Reduction in the infarct volume” value in data set [4] (setting [5]) is recorded as 53%. In addition, in data set [4] (0.3 mg/kg/h, i.v. continuous infusion directly up to 4 hours post-trauma), the “% Reduction in the infarct volume” value was “(65) %”.
